In PMC5994430, “Mitochondrial Delivery of Phenol Substructure Triggers Mitochondrial Depolarization and Apoptosis of Cancer Cells” (Frontiers in Pharmacology, 2018) one finds cell viability data, which are given here for one compound.

One assay concerns A549 cells. In words: Cell viability (neutral red). The conditions noted are these: A549; 0.1 μM, 72 h. It counts as cell-based, Human. From the text:
(§1) Human colon cancer HT29 cells, colon-derived normal fibroblast CCD-18Co cells, lung cancer A549 cells, normal human bronchial epithelial (immortalized with adenovirus 12-SV40 virus hybrid Ad12SV40) BEAS-2B cells, breast cancer MDA-MB-231 cells, normal breast epithelial MCF10A cells, human osteosarcoma U-2OS cells were purchased from ATCC (Manassas, VA, United States). […] All subjects gave written informed consent in accordance with the Declaration of Helsinki. Cells were maintained in medium supplemented with 10% v/v fetal bovine serum, 1% v/v penicillin-streptomycin, 1% v/v L-glutamine. Morphological analysis was performed with a bright field microscope (Leica Microsystems, Wetzlar, Germany). At least 5 fields/experimental condition were examined.
(§2) LDH activity was measured in the extracellular medium and in the cell lysate: 50 μl of extracellular medium or 5 μl of cell lysate were incubated at 37°C with 5 mM NADH. The reaction was started by adding 20 mM pyruvic acid and was monitored for 6 min, measuring absorbance at 340 nm using a Synergy HT Multi-Detection Microplate Reader (Bio-Tek Instruments, Winoosky, MT, United States). […] Both intracellular and extracellular enzyme activities were expressed as μmol NADH oxidized/min/dish. The results were expressed as percentage of extracellular LDH versus total (intracellular plus extracellular) LDH. […] The absorbance of untreated cells was considered as 100% viability; the results were expressed as percentage of viable cells versus untreated cells. IC50 was calculated with the CompuSyn software^1.

In a further assay the test system is BEAS-2B cells. Put plainly: Cell viability (neutral red). Format: cell-based, Human. The conditions noted are these: BEAS-2B; 0.1 μM, 72 h.
Description: as §1, §2

With `C[P+](c1ccccc1)(c1ccccc1)c1ccccc1.[Cl-]` [TPMP, methyltriphenylphosphonium chloride, reference compound], the cell viability result with A549 cells and in the assay on BEAS-2B cells was “did not reduce viability” in each case.
